Measured values published in patent publication US12544463B2, “Deuterium substituted positron emission tomography (PET) imaging agents and their pharmacological application” (Five Eleven Pharma Inc., priority 2017, dated 2026).
Values belong to the compound of their own block, whether it stands above or below them.

What was measured:
[1] = molecular target: T1, serotonin transporters (SERT) (Rattus norvegicus, UniProt P31652); test: In vitro binding assay, LLC-SERT membrane homogenates, [^125I]IDAM; conditions: for Ki: 0.2 nM [^125I]IDAM, LLC-SERT membranes, read-out: Ki (SERT binding affinity) (converted)
T1 construct: expressed in transfected cells; host or cells: LLC-PK1 (LLC-SERT)
T1 sequence (P31652 whole entry): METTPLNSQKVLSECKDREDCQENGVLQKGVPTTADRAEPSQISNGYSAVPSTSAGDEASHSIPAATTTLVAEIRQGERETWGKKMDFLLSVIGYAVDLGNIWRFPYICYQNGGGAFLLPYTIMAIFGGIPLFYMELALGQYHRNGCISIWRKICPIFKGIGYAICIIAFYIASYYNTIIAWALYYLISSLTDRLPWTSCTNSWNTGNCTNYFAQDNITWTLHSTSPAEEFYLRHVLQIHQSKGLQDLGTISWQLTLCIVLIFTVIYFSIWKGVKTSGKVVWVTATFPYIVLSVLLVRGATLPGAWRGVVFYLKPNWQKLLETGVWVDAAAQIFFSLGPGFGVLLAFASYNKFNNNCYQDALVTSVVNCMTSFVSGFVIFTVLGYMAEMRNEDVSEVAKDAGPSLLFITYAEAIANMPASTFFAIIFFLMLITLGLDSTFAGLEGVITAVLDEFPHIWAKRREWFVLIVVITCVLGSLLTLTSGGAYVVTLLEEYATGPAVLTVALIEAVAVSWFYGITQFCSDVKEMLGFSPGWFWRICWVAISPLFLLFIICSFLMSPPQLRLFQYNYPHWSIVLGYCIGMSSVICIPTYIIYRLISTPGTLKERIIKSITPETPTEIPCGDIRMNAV
Protocol: The membrane homogenates of serotonin transporters (LLC-SERT, which were expressed in a common parental cell line LLC-PK1) were prepared and used for the binding assays. Competitive binding assays were performed in a final volume of 0.25 mL. […] Nonspecific binding was defined with 10 μM citalopram. Incubation was carried out for 60 min at room temperature and the bound ligand was collected on glass fiber filters presoaked with 1% polyethylenimine (SIGMA, St. Louis, MO) and counted in a gamma counter (Wizard^2, Perkin Elmer).

[2] = Biodistribution study in mice; assay type: in vivo; conditions: for Biodistribution Blood / Biodistribution Bone / Biodistribution Brain / Biodistribution Heart / Biodistribution Kidney / Biodistribution Liver / Biodistribution Lung / Biodistribution Muscle / Biodistribution Pancreas / Biodistribution Skin / Biodistribution Spleen: normal male mice
Protocol: Three mice per group were used for biodistribution study. While under isoflurane anesthesia, 0.1 mL of a saline solution containing radioactive tracer was injected into tail vein. The mice were sacrificed at the time indicated by cardiac excision while under isoflurane anesthesia. Organs of interest were removed and weighed, and the radioactivity was counted. The percent dose per organ was calculated by comparing the tissue counts to counts of 1% of the initial dose (100 times diluted aliquots of the injected material) measured at the same time.

[3] = Biodistribution in rats of ^18F-III-3 (^18F-FPBM-D12); assay type: in vivo, rat; conditions: for Biodistribution Blood / Biodistribution Bone / Biodistribution Brain / Biodistribution Heart / Biodistribution Kidney / Biodistribution Liver / Biodistribution Lung / Biodistribution Muscle / Biodistribution Pancreas / Biodistribution Skin / Biodistribution Spleen: normal rats, i.v.
Protocol: (§1) Three rats per group were used for each biodistribution study. While under isoflurane anesthesia, 0.2 mL of a saline solution containing 20 μCi of radioactive tracer was injected into the femoral vein. The rats were sacrificed at the time indicated by cardiac excision while under isoflurane anesthesia. Organs of interest were removed and weighed, and the radioactivity was counted. The percent dose per organ was calculated by comparing the tissue counts to counts of 1% of the initial dose (100 times diluted aliquots of the injected material) measured at the same time. Regional brain distribution in rats was measured after an iv injection of the radioactive tracer. Samples from different brain regions [cortex, striatum, hippocampus, cerebellum and hypothalamus] were dissected, weighed and counted. The percentage dose/g of each sample was calculated by comparing sample counts with the counts of the diluted initial dose described above. The ratio was calculated by dividing the percentage dose/g of each region by that of the cerebellum. The cerebellum was used as the reference region for calculating the ratio of target to non-target binding, because only a trace amount of SERT is present in the cerebellum.

[4] = molecular target: T2, SERT (Rattus norvegicus, UniProt P31652); test: Region to cerebellum ratio in rats, ^18F-III-3; assay type: in vivo; conditions: normal rats, i.v.
T2 construct: host or cells: live rats, dissected brain regions
T2 sequence (P31652 whole entry): as above
Protocol: as §1

Ki [1]: 0.009 nM
Compound: [2H]C([2H])(F)C([2H])([2H])C([2H])([2H])Oc1ccc(Sc2ccc(Cl)cc2N)c(CN(C)C)c1 [III-4-25]

Ki [1]: 0.021 nM
Compound: [2H]C([2H])(F)C([2H])([2H])C([2H])([2H])Oc1ccc(Sc2ccc(Br)cc2N)c(CN(C)C)c1 [III-4-26]

Ki [1]: 0.024 nM
Compound: [2H]C([2H])(F)C([2H])([2H])C([2H])([2H])Oc1ccc(Sc2ccc(F)cc2N)c(CN(C)C)c1 [III-4-27]

Ki [1]: 0.008 nM
Compound: [2H]C([2H])(F)C([2H])([2H])C([2H])([2H])Oc1ccc(Sc2ccc(I)cc2N)c(CN(C)C)c1 [III-4-28]

Ki [1]: 39.3 ± 11.9 nM
Compound: NCc1cc(OCCCF)ccc1Sc1ccccc1N [III-5-5]

Ki [1]: 44.9 ± 2.5 nM
Compound: [2H]C([2H])(F)C([2H])([2H])C([2H])([2H])Oc1ccc(Sc2ccccc2N)c(CN)c1 [III-5-8]

Ki [1]: 5.26 ± 0.66 nM
Compound: CNCc1cc(OCCCF)ccc1Sc1ccccc1N [III-6-5]

Ki [1]: 3.05 ± 0.81 nM
Compound: [2H]C([2H])([2H])NCc1cc(OCCCF)ccc1Sc1ccccc1N [III-6-8]

Compound: CN(C)Cc1ccccc1Sc1ccc(I)cc1CO [[^125I]IDAM, reference compound]
Kd ([1]; value used in Cheng-Prusoff equation): 0.2 nM

Biodistribution Blood ([2]; 2 min): 2.16 ± 0.05 % Dose/g
Biodistribution Bone ([2]; 2 min): 1.74 ± 0.18 % Dose/g
Biodistribution Brain ([2]; 2 min): 6.26 ± 0.23 % Dose/g
Biodistribution Heart ([2]; 2 min): 5.08 ± 0.39 % Dose/g
Biodistribution Kidney ([2]; 2 min): 9.51 ± 0.80 % Dose/g
Biodistribution Liver ([2]; 2 min): 12.0 ± 0.70 % Dose/g
Biodistribution Lung ([2]; 2 min): 4.88 ± 0.16 % Dose/g
Biodistribution Muscle ([2]; 2 min): 3.21 ± 0.14 % Dose/g
Biodistribution Pancreas ([2]; 2 min): 4.94 ± 0.77 % Dose/g
Biodistribution Skin ([2]; 2 min): 1.24 ± 0.27 % Dose/g
Biodistribution Spleen ([2]; 2 min): 2.50 ± 0.12 % Dose/g
Biodistribution Blood ([2]; 30 min): 2.93 ± 0.27 % Dose/g
Biodistribution Bone ([2]; 30 min): 2.24 ± 0.44 % Dose/g
Biodistribution Brain ([2]; 30 min): 1.71 ± 0.37 % Dose/g
Biodistribution Heart ([2]; 30 min): 2.40 ± 0.39 % Dose/g
Biodistribution Kidney ([2]; 30 min): 6.41 ± 1.86 % Dose/g
Biodistribution Liver ([2]; 30 min): 12.0 ± 0.71 % Dose/g
Biodistribution Lung ([2]; 30 min): 2.90 ± 0.47 % Dose/g
Biodistribution Muscle ([2]; 30 min): 1.79 ± 0.06 % Dose/g
Biodistribution Pancreas ([2]; 30 min): 2.05 ± 0.29 % Dose/g
Biodistribution Skin ([2]; 30 min): 2.07 ± 0.14 % Dose/g
Biodistribution Spleen ([2]; 30 min): 1.52 ± 0.21 % Dose/g
Biodistribution Blood ([2]; 60 min): 2.08 ± 0.07 % Dose/g
Biodistribution Bone ([2]; 60 min): 2.76 ± 0.37 % Dose/g
Biodistribution Brain ([2]; 60 min): 1.53 ± 0.20 % Dose/g
Biodistribution Heart ([2]; 60 min): 1.72 ± 0.19 % Dose/g
Biodistribution Kidney ([2]; 60 min): 3.74 ± 0.47 % Dose/g
Biodistribution Liver ([2]; 60 min): 8.15 ± 0.75 % Dose/g
Biodistribution Lung ([2]; 60 min): 1.97 ± 0.25 % Dose/g
Biodistribution Muscle ([2]; 60 min): 1.20 ± 0.04 % Dose/g
Biodistribution Pancreas ([2]; 60 min): 1.43 ± 0.20 % Dose/g
Biodistribution Skin ([2]; 60 min): 1.34 ± 0.07 % Dose/g
Biodistribution Spleen ([2]; 60 min): 1.22 ± 0.12 % Dose/g
Biodistribution Blood ([2]; 120 min): 1.36 ± 0.12 % Dose/g
Biodistribution Bone ([2]; 120 min): 4.41 ± 0.77 % Dose/g
Biodistribution Brain ([2]; 120 min): 1.26 ± 0.04 % Dose/g
Biodistribution Heart ([2]; 120 min): 1.18 ± 0.03 % Dose/g
Biodistribution Kidney ([2]; 120 min): 2.09 ± 0.02 % Dose/g
Biodistribution Liver ([2]; 120 min): 5.47 ± 0.29 % Dose/g
Biodistribution Lung ([2]; 120 min): 1.31 ± 0.03 % Dose/g
Biodistribution Muscle ([2]; 120 min): 0.75 ± 0.07 % Dose/g
Biodistribution Pancreas ([2]; 120 min): 0.87 ± 0.15 % Dose/g
Biodistribution Skin ([2]; 120 min): 0.91 ± 0.13 % Dose/g
Biodistribution Spleen ([2]; 120 min): 0.83 ± 0.07 % Dose/g
Compound: [2H]C([2H])([2H])Nc1ccc(/C=C/c2ccc(OCCOCCOCC[18F])nc2)cc1 [^18F-AV-45-D3 (IIa1)]
brain uptake ([2]; mice, after i.v. injection): excellent brain uptake comparable to that observed to ^18F-AV-45

Compound: [2H]C([2H])([2H])N(Cc1cc(OC([2H])([2H])C([2H])([2H])C([2H])([2H])[18F])ccc1Sc1ccccc1N)C([2H])([2H])[2H] [^18F-III-3 (^18F-FPBM-D12)]
Biodistribution Blood ([3]; 2 min): 0.25 ± 0.04 % Dose/g
Biodistribution Bone ([3]; 2 min): 0.35 ± 0.06 % Dose/g
Biodistribution Brain ([3]; 2 min): 1.09 ± 0.06 % Dose/g
Biodistribution Heart ([3]; 2 min): 1.19 ± 0.18 % Dose/g
Biodistribution Kidney ([3]; 2 min): 3.02 ± 0.16 % Dose/g
Biodistribution Liver ([3]; 2 min): 0.74 ± 0.16 % Dose/g
Biodistribution Lung ([3]; 2 min): 9.56 ± 2.29 % Dose/g
Biodistribution Muscle ([3]; 2 min): 0.14 ± 0.02 % Dose/g
Biodistribution Pancreas ([3]; 2 min): 1.13 ± 0.02 % Dose/g
Biodistribution Skin ([3]; 2 min): 0.22 ± 0.04 % Dose/g
Biodistribution Spleen ([3]; 2 min): 1.48 ± 0.31 % Dose/g
Biodistribution Blood ([3]; 30 min): 0.16 ± 0.03 % Dose/g
Biodistribution Bone ([3]; 30 min): 0.19 ± 0.01 % Dose/g
Biodistribution Brain ([3]; 30 min): 0.81 ± 0.04 % Dose/g
Biodistribution Heart ([3]; 30 min): 0.18 ± 0.02 % Dose/g
Biodistribution Kidney ([3]; 30 min): 1.79 ± 0.38 % Dose/g
Biodistribution Liver ([3]; 30 min): 0.30 ± 0.05 % Dose/g
Biodistribution Lung ([3]; 30 min): 1.86 ± 0.42 % Dose/g
Biodistribution Muscle ([3]; 30 min): 0.09 ± 0.02 % Dose/g
Biodistribution Pancreas ([3]; 30 min): 0.27 ± 0.06 % Dose/g
Biodistribution Skin ([3]; 30 min): 0.19 ± 0.03 % Dose/g
Biodistribution Spleen ([3]; 30 min): 0.88 ± 0.05 % Dose/g
Biodistribution Blood ([3]; 60 min): 0.10 ± 0.02 % Dose/g
Biodistribution Bone ([3]; 60 min): 0.16 ± 0.02 % Dose/g
Biodistribution Brain ([3]; 60 min): 0.54 ± 0.05 % Dose/g
Biodistribution Heart ([3]; 60 min): 0.09 ± 0.01 % Dose/g
Biodistribution Kidney ([3]; 60 min): 1.29 ± 0.29 % Dose/g
Biodistribution Liver ([3]; 60 min): 0.22 ± 0.02 % Dose/g
Biodistribution Lung ([3]; 60 min): 0.85 ± 0.11 % Dose/g
Biodistribution Muscle ([3]; 60 min): 0.07 ± 0.01 % Dose/g
Biodistribution Pancreas ([3]; 60 min): 0.19 ± 0.02 % Dose/g
Biodistribution Skin ([3]; 60 min): 0.16 ± 0.01 % Dose/g
Biodistribution Spleen ([3]; 60 min): 0.46 ± 0.10 % Dose/g
Biodistribution Blood ([3]; 120 min): 0.06 ± 0.00 % Dose/g
Biodistribution Bone ([3]; 120 min): 0.13 ± 0.01 % Dose/g
Biodistribution Brain ([3]; 120 min): 0.31 ± 0.03 % Dose/g
Biodistribution Heart ([3]; 120 min): 0.05 ± 0.01 % Dose/g
Biodistribution Kidney ([3]; 120 min): 0.83 ± 0.39 % Dose/g
Biodistribution Liver ([3]; 120 min): 0.16 ± 0.01 % Dose/g
Biodistribution Lung ([3]; 120 min): 0.45 ± 0.10 % Dose/g
Biodistribution Muscle ([3]; 120 min): 0.03 ± 0.01 % Dose/g
Biodistribution Pancreas ([3]; 120 min): 0.13 ± 0.07 % Dose/g
Biodistribution Skin ([3]; 120 min): 0.10 ± 0.02 % Dose/g
Biodistribution Spleen ([3]; 120 min): 0.21 ± 0.04 % Dose/g
blood-brain-barrier penetration ([3]; rats, after i.v. injection): penetrated the blood-brain-barrier
Region to Cerebellum Ratio: Cerebellum ([4]; 2 min): 1.00 ± 0.00
Region to Cerebellum Ratio: Cortex ([4]; 2 min): 1.44 ± 0.27
Region to Cerebellum Ratio: Hippocampus ([4]; 2 min): 0.97 ± 0.13
Region to Cerebellum Ratio: Hypothalamus ([4]; 2 min): 1.17 ± 0.21
Region to Cerebellum Ratio: Remainder ([4]; 2 min): 1.21 ± 0.13
Region to Cerebellum Ratio: Striatum ([4]; 2 min): 1.15 ± 0.18
Region to Cerebellum Ratio: Cerebellum ([4]; 30 min): 1.00 ± 0.00
Region to Cerebellum Ratio: Cortex ([4]; 30 min): 1.81 ± 0.30
Region to Cerebellum Ratio: Hippocampus ([4]; 30 min): 2.04 ± 0.27
Region to Cerebellum Ratio: Hypothalamus ([4]; 30 min): 2.99 ± 0.46
Region to Cerebellum Ratio: Remainder ([4]; 30 min): 2.42 ± 0.13
Region to Cerebellum Ratio: Striatum ([4]; 30 min): 2.43 ± 0.38
Region to Cerebellum Ratio: Cerebellum ([4]; 60 min): 1.00 ± 0.00
Region to Cerebellum Ratio: Cortex ([4]; 60 min): 2.68 ± 0.35
Region to Cerebellum Ratio: Hippocampus ([4]; 60 min): 3.45 ± 0.42
Region to Cerebellum Ratio: Hypothalamus ([4]; 60 min): 5.32 ± 0.45
Region to Cerebellum Ratio: Remainder ([4]; 60 min): 3.77 ± 0.43
Region to Cerebellum Ratio: Striatum ([4]; 60 min): 3.96 ± 0.62
Region to Cerebellum Ratio: Cerebellum ([4]; 120 min): 1.00 ± 0.00
Region to Cerebellum Ratio: Cortex ([4]; 120 min): 2.67 ± 0.50
Region to Cerebellum Ratio: Hippocampus ([4]; 120 min): 3.85 ± 0.28
Region to Cerebellum Ratio: Hypothalamus ([4]; 120 min): 7.55 ± 0.82
Region to Cerebellum Ratio: Remainder ([4]; 120 min): 4.74 ± 0.71
Region to Cerebellum Ratio: Striatum ([4]; 120 min): 4.69 ± 1.26
